The text below walks through data of ChEMBL document CHEMBL1201862, “PubChem BioAssay data set” (2004).

Active and inactive are the calls of the source.

In general, EC50 refers to the midpoint of the concentration-response curve. In general, IC50 refers to the point on the concentration scale where inhibition reaches its midpoint. Broadly, the AC50 is the midpoint of the concentration-response curve, whichever way the signal moves.

A short description of assay [1]: enhancers of respiration in Yfh1-depleted yeast, dose response, Friedreich's ataxia, plus single-dose screen (AID 1465).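 Further: yeast depleted of Yfh1p frataxin homolog grown on glycerol needing respiration; WST-1 tetrazolium dye reduction as measure of cellular dehydrogenase metabolic activity.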 In kind it is functional.
Assay [2] has as its target Peroxisome proliferator-activated receptor gamma/Nuclear receptor coactivator 2 (Homo sapiens, UniProt P37231). Type of assay: functional.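 Further: agonist potency for raising coactivator recruitment to the receptor.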
The next assay addresses T1, Mucolipin-3 (Homo sapiens, UniProt Q8TDD5).
T1 sequence (Q8TDD5 whole entry): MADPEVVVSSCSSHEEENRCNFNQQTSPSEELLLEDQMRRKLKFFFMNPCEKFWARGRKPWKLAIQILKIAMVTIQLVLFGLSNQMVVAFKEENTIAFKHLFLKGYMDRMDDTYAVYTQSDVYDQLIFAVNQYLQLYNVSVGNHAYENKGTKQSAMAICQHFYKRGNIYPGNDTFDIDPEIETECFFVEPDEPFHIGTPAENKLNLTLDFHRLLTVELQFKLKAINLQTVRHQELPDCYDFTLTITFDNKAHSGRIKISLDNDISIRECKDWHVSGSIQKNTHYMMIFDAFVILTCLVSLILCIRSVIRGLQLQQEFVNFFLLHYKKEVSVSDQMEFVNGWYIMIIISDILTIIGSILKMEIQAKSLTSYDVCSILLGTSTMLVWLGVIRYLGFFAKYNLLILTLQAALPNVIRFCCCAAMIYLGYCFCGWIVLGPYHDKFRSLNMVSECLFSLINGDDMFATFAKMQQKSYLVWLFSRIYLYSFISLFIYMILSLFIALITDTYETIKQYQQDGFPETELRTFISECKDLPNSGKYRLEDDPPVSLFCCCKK
The assay is described as follows: Fluorescence counterscreen assay for […] agonists: dose response cell-based high-throughput screening assay to identify agonists of the transient receptor potential channel ML3 (TRPML3). [Related pubchem assays: 1424, 1448 ]. Type of assay: functional. On the technique in general: Counterscreens check selectivity or assay interference.

The target of assay [3] is T2, Calpain-2 catalytic subunit (Sus scrofa, UniProt P43367).
T2 sequence (P43367 whole entry): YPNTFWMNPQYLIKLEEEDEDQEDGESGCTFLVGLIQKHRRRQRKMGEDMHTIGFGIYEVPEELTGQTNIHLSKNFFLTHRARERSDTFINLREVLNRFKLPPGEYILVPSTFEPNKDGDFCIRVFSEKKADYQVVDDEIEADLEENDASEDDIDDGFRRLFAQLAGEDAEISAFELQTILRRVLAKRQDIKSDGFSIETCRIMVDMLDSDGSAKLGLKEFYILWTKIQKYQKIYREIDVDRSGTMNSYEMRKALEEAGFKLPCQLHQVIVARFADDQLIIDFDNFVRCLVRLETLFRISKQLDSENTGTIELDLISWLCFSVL
Description: pig calpain II inhibitor potency, dose response, biochemical, fluorogenic peptide substrate (AID 1420). In kind it is functional.

Assay [4] addresses Peroxisome proliferator-activated receptor gamma/Nuclear receptor coactivator 1 (Homo sapiens, UniProt P37231). Type of assay: functional.
In a further assay the target is Ion channel NompC (Danio rerio, UniProt Q7T1G6). Description: Dose response cell-based high-throughput screening assay for agonists of the transient receptor potential channel N1 (TRPN1). [Related pubchem assays (depositor defined):AID1424, AID1448]. In kind it is functional.
For assay [5], the target named is Peroxisome proliferator-activated receptor gamma/Nuclear receptor coactivator 3 (Homo sapiens, UniProt P37231). Type of assay: functional.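 Further: agonist potency for raising coactivator recruitment to the receptor.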
The target in the next assay is T3, Leucine aminopeptidase (Plasmodium falciparum 3D7, UniProt Q8IL11).
T3 sequence (Q8IL11 whole entry): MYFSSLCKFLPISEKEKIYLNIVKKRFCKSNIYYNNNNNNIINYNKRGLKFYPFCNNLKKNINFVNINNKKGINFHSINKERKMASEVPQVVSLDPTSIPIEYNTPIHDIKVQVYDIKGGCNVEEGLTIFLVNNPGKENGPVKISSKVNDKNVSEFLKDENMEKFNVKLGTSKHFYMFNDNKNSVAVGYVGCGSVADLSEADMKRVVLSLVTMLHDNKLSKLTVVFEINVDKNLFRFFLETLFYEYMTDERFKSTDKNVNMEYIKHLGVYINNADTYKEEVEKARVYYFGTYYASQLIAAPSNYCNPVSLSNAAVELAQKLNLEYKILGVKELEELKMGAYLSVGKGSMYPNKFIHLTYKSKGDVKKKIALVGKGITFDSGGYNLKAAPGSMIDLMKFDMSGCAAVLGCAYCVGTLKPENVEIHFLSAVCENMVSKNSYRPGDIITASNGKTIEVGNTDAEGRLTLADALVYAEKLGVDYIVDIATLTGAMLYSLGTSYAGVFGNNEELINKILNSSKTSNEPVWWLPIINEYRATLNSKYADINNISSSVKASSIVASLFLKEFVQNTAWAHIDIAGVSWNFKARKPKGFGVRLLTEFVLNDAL
The assay is described as follows: P. falciparum M17LAP inhibitors, primary screen, biochemical, fluorogenic H-Leu-NHMec substrate, 1536-well (AID 1619). In kind it is functional.

Assay [6] concerns the target T4, Voltage-gated N-type calcium channel alpha-1B subunit/Amyloid beta A4 precursor protein-binding family A member 1 (Homo sapiens, UniProt Q00975+Q02410). In kind it is protein assay.
A further assay deals with Paired box protein Pax-8 (Homo sapiens, UniProt Q06710). The assay is described as follows: inhibitors of PAX8-driven TPO luciferase reporter, dose response, RMG-I cells, cherry-pick (AID 687027).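 Further: luciferase reporter driven by Pax8 target thyroperoxidase promoter measured by SteadyGlo luminescence.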 In kind it is functional, cell-based. For orientation: A reporter such as luciferase makes a cellular process visible.
The target of assay [7] is T5, Replicative DNA helicase DnaB (Mycobacterium tuberculosis, UniProt P9WMR3).
T5 sequence (P9WMR3 whole entry): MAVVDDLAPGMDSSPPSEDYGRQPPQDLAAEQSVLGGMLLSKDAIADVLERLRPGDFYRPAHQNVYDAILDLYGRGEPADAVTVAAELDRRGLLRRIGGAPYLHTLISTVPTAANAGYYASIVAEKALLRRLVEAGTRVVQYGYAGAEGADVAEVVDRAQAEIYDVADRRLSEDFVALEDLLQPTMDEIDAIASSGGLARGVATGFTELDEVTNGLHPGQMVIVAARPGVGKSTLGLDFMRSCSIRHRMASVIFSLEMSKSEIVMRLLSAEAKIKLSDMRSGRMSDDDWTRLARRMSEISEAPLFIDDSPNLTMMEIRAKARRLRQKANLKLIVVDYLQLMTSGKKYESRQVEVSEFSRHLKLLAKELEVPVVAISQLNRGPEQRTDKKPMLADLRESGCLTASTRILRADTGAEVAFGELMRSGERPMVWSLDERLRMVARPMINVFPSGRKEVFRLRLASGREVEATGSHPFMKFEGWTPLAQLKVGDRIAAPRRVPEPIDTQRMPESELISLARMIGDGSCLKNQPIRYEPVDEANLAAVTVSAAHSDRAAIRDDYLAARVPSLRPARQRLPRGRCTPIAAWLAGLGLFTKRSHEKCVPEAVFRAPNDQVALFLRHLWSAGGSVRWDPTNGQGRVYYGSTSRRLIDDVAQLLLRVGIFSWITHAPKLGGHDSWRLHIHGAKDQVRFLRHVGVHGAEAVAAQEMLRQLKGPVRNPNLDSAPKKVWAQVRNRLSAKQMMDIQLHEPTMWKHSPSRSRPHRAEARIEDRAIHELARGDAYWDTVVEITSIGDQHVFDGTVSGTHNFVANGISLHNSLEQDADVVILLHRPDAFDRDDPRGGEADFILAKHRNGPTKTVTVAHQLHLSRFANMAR
Description: DnaB intein splicing inhibitors, dose response, biochemical, cell-free fluorescence (AID 449749). In kind it is functional.

For assay [8], the target named is T4, Voltage-gated N-type calcium channel alpha-1B subunit/Amyloid beta A4 precursor protein-binding family A member 1. Type of assay: protein assay. The source holds these as a separate data set.
Another assay concerns the target T6, Protein RecA (Mycobacterium tuberculosis, UniProt P9WHJ3).
T6 sequence (P9WHJ3 whole entry): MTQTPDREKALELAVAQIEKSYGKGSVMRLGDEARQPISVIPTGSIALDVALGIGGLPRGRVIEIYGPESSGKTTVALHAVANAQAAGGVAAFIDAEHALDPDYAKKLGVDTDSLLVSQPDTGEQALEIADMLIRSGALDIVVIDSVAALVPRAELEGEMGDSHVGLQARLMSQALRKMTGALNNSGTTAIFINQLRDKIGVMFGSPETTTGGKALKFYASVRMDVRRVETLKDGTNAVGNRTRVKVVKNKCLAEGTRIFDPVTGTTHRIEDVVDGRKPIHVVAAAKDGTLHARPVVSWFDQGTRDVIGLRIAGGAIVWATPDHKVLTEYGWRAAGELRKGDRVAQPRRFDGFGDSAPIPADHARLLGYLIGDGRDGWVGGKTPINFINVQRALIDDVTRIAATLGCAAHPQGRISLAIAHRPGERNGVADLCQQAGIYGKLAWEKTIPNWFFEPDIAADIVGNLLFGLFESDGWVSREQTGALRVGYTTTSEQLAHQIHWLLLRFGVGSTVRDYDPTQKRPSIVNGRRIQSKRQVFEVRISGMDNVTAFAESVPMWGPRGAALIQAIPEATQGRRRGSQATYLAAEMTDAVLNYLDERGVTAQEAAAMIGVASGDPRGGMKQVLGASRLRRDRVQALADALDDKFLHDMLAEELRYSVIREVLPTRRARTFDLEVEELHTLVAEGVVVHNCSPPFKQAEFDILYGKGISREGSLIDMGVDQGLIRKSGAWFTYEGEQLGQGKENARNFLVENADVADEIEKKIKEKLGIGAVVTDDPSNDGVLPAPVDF
The assay is described as follows: Fluorescence Cell-Free Homogeneous Dose Retest to Identify Inhibitors of RecA-Intein Splicing Activity. [Related pubchem assays (depositor defined):AID2097, AID2223, AID489010, AID492950]. In kind it is functional.

The nature of assay [9]: non-specific cell cytotoxicity, dose response, cytotoxicity control for PAX8 inhibitor project, plate reader, dry powder samples (AID 743021). In kind it is functional, cell-based.
Assay [10] can be described thus: inhibitors of CMV-promoter luciferase reporter, dose response, counter-screen for Pax8 inhibitor project, cell-based, HEK293, luminescence, dry powder (AID 743020). In kind it is functional.

T4 sequence (Q00975 whole entry): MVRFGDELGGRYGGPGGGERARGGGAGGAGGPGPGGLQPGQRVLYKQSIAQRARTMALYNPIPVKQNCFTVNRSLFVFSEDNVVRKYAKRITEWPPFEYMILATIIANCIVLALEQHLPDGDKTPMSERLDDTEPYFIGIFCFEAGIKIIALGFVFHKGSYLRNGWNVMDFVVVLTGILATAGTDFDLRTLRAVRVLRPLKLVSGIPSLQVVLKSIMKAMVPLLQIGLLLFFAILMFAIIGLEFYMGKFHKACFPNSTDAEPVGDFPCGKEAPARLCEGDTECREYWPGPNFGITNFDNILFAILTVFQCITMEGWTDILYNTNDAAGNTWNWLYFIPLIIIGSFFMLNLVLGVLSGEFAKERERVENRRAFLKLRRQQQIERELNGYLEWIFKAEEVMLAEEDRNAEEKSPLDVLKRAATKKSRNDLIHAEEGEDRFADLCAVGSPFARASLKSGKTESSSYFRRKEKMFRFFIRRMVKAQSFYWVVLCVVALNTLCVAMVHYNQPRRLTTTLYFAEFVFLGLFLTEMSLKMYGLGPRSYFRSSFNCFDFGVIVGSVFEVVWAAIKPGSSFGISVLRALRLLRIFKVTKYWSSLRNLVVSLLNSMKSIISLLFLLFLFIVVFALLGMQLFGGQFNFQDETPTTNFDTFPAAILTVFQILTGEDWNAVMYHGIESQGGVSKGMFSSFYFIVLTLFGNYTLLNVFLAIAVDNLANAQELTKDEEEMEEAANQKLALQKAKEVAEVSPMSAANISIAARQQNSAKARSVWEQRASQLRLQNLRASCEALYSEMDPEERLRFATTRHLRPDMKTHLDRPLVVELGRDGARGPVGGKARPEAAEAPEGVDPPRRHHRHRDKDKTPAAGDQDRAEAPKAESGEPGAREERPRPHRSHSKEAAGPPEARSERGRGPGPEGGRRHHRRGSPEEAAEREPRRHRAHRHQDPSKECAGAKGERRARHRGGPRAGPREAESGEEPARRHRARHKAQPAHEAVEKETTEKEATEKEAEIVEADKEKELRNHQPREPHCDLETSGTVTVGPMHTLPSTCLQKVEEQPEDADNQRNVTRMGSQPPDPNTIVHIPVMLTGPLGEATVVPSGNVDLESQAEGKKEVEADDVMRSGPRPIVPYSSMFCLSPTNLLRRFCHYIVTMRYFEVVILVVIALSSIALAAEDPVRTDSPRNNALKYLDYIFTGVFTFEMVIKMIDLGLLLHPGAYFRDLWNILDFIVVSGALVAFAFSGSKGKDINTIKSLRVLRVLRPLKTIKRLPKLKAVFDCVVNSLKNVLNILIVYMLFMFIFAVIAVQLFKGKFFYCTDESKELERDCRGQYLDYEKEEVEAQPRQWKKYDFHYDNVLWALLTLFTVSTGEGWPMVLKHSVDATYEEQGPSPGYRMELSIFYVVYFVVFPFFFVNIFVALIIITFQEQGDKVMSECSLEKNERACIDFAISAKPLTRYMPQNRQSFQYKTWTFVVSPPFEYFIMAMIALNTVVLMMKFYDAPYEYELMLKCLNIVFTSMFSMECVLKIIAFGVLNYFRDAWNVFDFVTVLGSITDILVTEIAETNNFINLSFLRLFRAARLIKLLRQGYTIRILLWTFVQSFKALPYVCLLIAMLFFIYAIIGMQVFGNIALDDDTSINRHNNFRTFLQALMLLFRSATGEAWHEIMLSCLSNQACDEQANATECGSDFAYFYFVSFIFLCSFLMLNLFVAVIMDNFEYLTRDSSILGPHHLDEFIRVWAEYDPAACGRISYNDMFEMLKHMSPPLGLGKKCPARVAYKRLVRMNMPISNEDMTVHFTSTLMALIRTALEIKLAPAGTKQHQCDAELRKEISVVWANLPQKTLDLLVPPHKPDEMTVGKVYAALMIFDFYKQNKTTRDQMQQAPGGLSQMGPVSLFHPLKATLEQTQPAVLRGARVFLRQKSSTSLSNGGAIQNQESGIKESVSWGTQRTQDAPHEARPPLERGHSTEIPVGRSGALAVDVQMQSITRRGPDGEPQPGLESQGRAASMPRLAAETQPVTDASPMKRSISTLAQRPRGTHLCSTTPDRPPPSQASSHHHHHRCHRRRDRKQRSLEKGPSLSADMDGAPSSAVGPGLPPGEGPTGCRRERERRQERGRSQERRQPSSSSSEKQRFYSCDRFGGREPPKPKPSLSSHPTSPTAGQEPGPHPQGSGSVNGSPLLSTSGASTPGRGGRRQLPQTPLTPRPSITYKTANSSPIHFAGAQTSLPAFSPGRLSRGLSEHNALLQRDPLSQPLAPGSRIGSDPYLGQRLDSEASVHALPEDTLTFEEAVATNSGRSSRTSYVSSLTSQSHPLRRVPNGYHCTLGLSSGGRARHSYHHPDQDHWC
T4 sequence (Q02410 whole entry): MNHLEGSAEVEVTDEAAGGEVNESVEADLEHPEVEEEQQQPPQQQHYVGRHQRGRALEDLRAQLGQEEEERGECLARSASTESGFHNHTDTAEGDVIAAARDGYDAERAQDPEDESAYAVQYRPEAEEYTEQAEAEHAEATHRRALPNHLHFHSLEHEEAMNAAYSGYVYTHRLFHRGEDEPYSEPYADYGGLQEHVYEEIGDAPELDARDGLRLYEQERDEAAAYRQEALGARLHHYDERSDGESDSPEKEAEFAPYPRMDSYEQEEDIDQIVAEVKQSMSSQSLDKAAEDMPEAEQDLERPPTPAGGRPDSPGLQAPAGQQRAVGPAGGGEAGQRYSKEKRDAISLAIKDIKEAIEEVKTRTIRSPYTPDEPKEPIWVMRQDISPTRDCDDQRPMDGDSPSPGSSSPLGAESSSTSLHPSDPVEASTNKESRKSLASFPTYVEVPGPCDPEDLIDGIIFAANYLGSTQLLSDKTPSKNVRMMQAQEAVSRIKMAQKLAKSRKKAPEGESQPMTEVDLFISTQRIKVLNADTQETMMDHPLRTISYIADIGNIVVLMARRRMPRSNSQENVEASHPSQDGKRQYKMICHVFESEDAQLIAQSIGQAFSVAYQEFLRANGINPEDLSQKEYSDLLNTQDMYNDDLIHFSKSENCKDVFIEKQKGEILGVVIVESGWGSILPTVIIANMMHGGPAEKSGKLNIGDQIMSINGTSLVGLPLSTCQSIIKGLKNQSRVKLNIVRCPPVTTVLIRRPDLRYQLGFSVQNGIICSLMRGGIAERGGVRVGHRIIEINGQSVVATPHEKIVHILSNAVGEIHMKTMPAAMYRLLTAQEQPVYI
Chain of Ion channel NompC (Q7T1G6 whole entry): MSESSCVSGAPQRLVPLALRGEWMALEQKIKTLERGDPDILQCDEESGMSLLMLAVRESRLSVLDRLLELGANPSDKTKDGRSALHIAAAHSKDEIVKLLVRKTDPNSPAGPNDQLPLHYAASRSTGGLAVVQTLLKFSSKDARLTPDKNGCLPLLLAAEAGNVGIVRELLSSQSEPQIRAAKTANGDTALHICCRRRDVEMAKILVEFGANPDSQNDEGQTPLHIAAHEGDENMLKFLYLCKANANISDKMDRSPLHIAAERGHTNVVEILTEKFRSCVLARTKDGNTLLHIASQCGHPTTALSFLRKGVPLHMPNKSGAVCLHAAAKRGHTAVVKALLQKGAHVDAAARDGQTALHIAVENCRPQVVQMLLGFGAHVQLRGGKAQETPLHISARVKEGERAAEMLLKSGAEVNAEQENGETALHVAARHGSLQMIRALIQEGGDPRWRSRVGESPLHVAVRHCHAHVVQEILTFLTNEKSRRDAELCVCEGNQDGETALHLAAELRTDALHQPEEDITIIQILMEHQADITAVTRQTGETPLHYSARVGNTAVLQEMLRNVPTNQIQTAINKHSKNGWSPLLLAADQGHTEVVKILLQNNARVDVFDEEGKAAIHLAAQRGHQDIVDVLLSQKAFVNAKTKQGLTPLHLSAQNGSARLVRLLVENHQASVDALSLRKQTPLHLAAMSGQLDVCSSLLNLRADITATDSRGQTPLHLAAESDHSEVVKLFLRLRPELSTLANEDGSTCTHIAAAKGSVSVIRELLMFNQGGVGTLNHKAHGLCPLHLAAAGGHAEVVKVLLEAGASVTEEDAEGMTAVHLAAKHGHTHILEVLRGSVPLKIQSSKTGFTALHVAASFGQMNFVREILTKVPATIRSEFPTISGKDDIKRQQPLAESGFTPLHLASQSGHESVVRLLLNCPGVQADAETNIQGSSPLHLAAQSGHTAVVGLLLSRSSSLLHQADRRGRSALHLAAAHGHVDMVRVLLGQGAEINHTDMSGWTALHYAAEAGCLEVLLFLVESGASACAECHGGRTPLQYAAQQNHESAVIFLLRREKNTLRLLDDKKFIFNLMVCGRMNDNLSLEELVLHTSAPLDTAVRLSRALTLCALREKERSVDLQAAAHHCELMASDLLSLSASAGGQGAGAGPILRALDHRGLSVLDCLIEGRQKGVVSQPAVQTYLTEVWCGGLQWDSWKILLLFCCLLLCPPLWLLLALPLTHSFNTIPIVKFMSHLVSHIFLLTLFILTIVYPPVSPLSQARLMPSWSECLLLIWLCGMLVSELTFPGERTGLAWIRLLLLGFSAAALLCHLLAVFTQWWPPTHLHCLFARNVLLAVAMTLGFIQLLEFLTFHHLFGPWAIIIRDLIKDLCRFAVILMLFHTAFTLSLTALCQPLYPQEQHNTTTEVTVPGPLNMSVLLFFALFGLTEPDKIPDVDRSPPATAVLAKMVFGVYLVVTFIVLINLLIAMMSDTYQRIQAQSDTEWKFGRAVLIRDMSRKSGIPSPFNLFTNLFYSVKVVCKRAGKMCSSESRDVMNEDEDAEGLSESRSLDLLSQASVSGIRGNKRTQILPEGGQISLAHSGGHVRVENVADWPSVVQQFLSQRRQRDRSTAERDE

Consider `CN1CCS/C1=C\C=C1/SC(=S)N(CC(=O)O)C1=O`, for which the EC50 is > 100 µM (active) in assay [1]; 62.2 µM (not active) in assay [2]; 7.93 µM (active) on Mucolipin-3; 89.8 µM (not active) in [4]; 5.26 µM (active) at Ion channel NompC; > 79.4 µM (not active) in assay [5]. The IC50 in [3] was 7.69 µM (not active); on Leucine aminopeptidase, 52.3 µM (active).

Consider `N#Cc1nccnc1S(=O)(=O)c1cccs1`, for which the values for the IC50 in assay [6] and in assay [8] were 22.7 µM (active) and 1.13 µM (active), respectively. Besides, the AC50 on Paired box protein Pax-8 was 4.59 µM (active); in assay [7] it was 8.49 µM (active); in assay [9], 13.5 µM (active); in [10] it was 23 µM (active). The EC50 at Protein RecA is 6.36 µM (active).
